{"source": "paper PMC12058161", "about": "“The plant matrix of Artemisia annua L. for the treatment of malaria: Pharmacodynamic and pharmacokinetic studies” (PLOS One, 2025)", "key": {"[1]": {"assay": "Bidirectional transport of ART across Caco-2 cell monolayers (LC-MS/MS)", "type": "in vitro ADME, human", "conditions": "human, Caco-2 monolayer, n = 3", "description": "(§1) The human epithelial cell line Caco-2 serves as a widely recognized model for the intestinal epithelial barrier, frequently utilized in the assessment of drug absorption and transport mechanisms. In this study, we evaluated drug absorption and distribution in vitro with the help of the Caco-2 cell model. Caco-2 cells were purchased from the Chinese Academy of Medical Sciences (Beijing, China, Resource No. 3111C0001CCC000100). The cells were resuscitated and inserted into culture flasks. Caco-2 cells were passaged with DMEM high glucose medium containing 10% (V/V) FBS, 1% (V/V) non-essential amino acid solution and 100 U/mL penicillin-streptomycin double antibiotic solution, and cultured at 37°C in a 5% CO2 incubator. […] The integrity of the cell monolayer was checked by measuring the transmembrane electrical resistance (TEER) of the monolayer cells with a Millicell-ERS electrode (Millipore Corp., Billerica, MA, USA). Caco-2 cells were used for transport experiments 17-21 days after inoculation. Besides, only monolayers with TEER values above 400 Ω/cm^2 were used in the study. […] To prepare drug-treated Caco-2 cell monolayers, Caco-2 cells cultured in Transwell® inserts were aseptically treated on day 21 with 10 μM of […] and nACTs. […] The excitation wavelength was set at 485 nm, and the emission wavelength at 535 nm. […] The efflux ratio was calculated using the Papp (BL-AP) to Papp (AP-BL) ratio. […] The solvent gradient was 65%B-95%B for 0-5 min; 95%B for 5-6 min; and 35%B for 6-9 min."}, "[2]": {"tested_on": "Caco-2 cell monolayers", "assay": "Bidirectional transport of ART across Caco-2 cell monolayers (LC-MS/MS)", "type": "in vitro ADME, human", "conditions": "for transhipment of ART, AP-BL / transhipment of ART, Transepithelial transport in BL-to-AP: single replicate; for ART concentration per group, summary block: summary used for cumulative amount", "description": "as §1"}, "[3]": {"target": "T1, P-glycoprotein (P-gp) (Homo sapiens, UniProt P08183)", "T1 construct": "The transport of R123 in normal Caco-2 cell monolayers or drug-treated Caco-2 cell monolayers was further studied; host or cells: Caco-2", "T1 sequence (P08183 whole entry)": "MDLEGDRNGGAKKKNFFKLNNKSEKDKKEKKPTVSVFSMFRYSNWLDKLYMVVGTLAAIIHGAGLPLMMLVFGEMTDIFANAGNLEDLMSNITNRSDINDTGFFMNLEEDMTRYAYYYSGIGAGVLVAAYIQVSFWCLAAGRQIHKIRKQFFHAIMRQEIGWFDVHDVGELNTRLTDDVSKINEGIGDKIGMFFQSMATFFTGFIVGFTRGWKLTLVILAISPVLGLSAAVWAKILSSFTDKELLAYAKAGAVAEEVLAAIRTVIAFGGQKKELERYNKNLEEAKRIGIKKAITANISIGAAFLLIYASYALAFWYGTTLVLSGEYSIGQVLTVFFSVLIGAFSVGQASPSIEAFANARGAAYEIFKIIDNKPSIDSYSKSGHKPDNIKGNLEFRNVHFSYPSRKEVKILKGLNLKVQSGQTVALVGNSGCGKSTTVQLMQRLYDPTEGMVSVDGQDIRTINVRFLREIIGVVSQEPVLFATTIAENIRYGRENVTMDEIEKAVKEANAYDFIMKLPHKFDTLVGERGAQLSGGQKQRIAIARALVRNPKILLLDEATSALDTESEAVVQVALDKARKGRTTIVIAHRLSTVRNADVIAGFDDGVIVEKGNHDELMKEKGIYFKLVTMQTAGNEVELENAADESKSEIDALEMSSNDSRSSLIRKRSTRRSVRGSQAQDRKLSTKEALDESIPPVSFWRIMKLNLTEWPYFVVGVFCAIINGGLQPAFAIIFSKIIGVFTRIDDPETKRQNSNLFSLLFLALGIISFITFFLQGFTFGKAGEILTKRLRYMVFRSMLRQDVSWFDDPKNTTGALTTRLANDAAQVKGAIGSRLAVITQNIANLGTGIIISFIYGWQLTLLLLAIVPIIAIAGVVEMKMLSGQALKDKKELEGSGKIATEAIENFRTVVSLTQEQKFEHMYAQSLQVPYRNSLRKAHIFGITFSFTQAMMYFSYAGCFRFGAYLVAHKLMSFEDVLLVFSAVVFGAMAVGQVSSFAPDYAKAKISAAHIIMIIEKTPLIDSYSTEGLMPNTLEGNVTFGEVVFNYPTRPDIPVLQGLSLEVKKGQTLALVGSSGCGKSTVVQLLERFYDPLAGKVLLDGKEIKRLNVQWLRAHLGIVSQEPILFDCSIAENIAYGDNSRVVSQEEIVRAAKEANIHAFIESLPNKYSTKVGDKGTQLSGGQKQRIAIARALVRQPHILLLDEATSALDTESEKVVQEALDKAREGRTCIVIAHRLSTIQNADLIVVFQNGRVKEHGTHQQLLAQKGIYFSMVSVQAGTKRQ", "assay": "Rhodamine 123 (P-gp substrate) transport across drug-treated Caco-2 cell monolayers", "type": "cell-based", "conditions": "co-incubated with R123, 10 μM, Caco-2 monolayer, Fig 6", "description": "The human epithelial cell line Caco-2 serves as a widely recognized model for the intestinal epithelial barrier, frequently utilized in the assessment of drug absorption and transport mechanisms. In this study, we evaluated drug absorption and distribution in vitro with the help of the Caco-2 cell model. Caco-2 cells were purchased from the Chinese Academy of Medical Sciences (Beijing, China, Resource No. 3111C0001CCC000100). The cells were resuscitated and inserted into culture flasks. Caco-2 cells were passaged with DMEM high glucose medium containing 10% (V/V) FBS, 1% (V/V) non-essential amino acid solution and 100 U/mL penicillin-streptomycin double antibiotic solution, and cultured at 37°C in a 5% CO2 incubator. […] The integrity of the cell monolayer was checked by measuring the transmembrane electrical resistance (TEER) of the monolayer cells with a Millicell-ERS electrode (Millipore Corp., Billerica, MA, USA). Caco-2 cells were used for transport experiments 17–21 days after inoculation. Besides, only monolayers with TEER values above 400 Ω/cm^2 were used in the study.\nThe transport of R123 in normal Caco-2 cell monolayers or drug-treated Caco-2 cell monolayers was further studied. […] The transport buffer containing 5 μM of R123 was added on either the AP or the BL side of the inserts, as described above. […] The concentrations of R123 were immediately analyzed by SpectraMax iD3. The excitation wavelength was set at 485 nm, and the emission wavelength at 535 nm. Papp values across the cell monolayers were calculated according to the equation: Papp = dQ/dt × 1/(A × C0), where dQ/dt represents the rate of drug transport. […] The efflux ratio was calculated using the Papp (BL-AP) to Papp (AP-BL) ratio."}, "[4]": {"conditions": "Caco-2, ART given as nACTs equivalent to 10 μM ART"}, "[5]": {"conditions": "sample code A: apical(AP), 30 min"}, "[6]": {"conditions": "sample code A: apical(AP), 60 min"}, "[7]": {"conditions": "sample code A: apical(AP), 90 min"}, "[8]": {"conditions": "sample code A: apical(AP), 120 min"}, "[9]": {"conditions": "sample code A: apical(AP), 150 min"}, "[10]": {"conditions": "sample code A: apical(AP), 180 min"}, "[11]": {"conditions": "sample code B: basolateral (BL), 30 min"}, "[12]": {"conditions": "sample code B: basolateral (BL), 60 min"}, "[13]": {"conditions": "sample code B: basolateral (BL), 90 min"}, "[14]": {"conditions": "sample code B: basolateral (BL), 120 min"}, "[15]": {"conditions": "sample code B: basolateral (BL), 150 min"}, "[16]": {"conditions": "sample code B: basolateral (BL), 180 min"}}, "note": "Where “and” joins values, the source holds several entries; their conditions need not be identical. Equal entries are not always repeated."}
{"smiles": "C[C@@H]1CC[C@H]2[C@@H](C)C(=O)O[C@@H]3O[C@@]4(C)CC[C@@H]1[C@]32OO4", "note": "[ART, Artemisinin, reference compound]", "values": [{"measurement": "Papp A→B at 180 min, 10 μM", "setting": "[1]; Caco-2, 10 μM ART alone (PU)", "value": "7.49 ± 0.35", "unit": "×10⁻⁶ cm/s"}, {"measurement": "Papp B→A at 180 min, 10 μM", "setting": "[1]; Caco-2, 10 μM ART alone (PU)", "value": "82.3 ± 2.1", "unit": "×10⁻⁶ cm/s"}, {"measurement": "Papp A→B at 180 min, 10 μM", "setting": "[1]; [4]", "value": "8.42 ± 0.37", "unit": "×10⁻⁶ cm/s"}, {"measurement": "Papp B→A at 180 min, 10 μM", "setting": "[1]; [4]", "value": "52.7 ± 2.3", "unit": "×10⁻⁶ cm/s"}, {"measurement": "transhipment of ART, AP-BL", "setting": "[2]; 30 min", "value": "3.69 nmol and 3.84 nmol and 3.71 nmol"}, {"measurement": "transhipment of ART, AP-BL", "setting": "[2]; 60 min", "value": "5.02 nmol and 5.27 nmol and 5.14 nmol"}, {"measurement": "transhipment of ART, AP-BL", "setting": "[2]; 90 min", "value": "7.24 nmol and 7.11 nmol and 7.33 nmol"}, {"measurement": "transhipment of ART, AP-BL", "setting": "[2]; 120 min", "value": "8.97 nmol and 9.16 nmol and 9.09 nmol"}, {"measurement": "transhipment of ART, AP-BL", "setting": "[2]; 150 min", "value": "10.67 nmol and 10.60 nmol and 10.62 nmol"}, {"measurement": "transhipment of ART, AP-BL", "setting": "[2]; 180 min", "value": "11.97 nmol (2×) and 11.99 nmol"}, {"measurement": "transhipment of ART, Transepithelial transport in BL-to-AP", "setting": "[2]; 30 min", "value": "28.49 nmol and 28.67 nmol and 28.4 nmol"}, {"measurement": "transhipment of ART, Transepithelial transport in BL-to-AP", "setting": "[2]; 60 min", "value": "55.39 nmol and 55.5 nmol and 55.82 nmol"}, {"measurement": "transhipment of ART, Transepithelial transport in BL-to-AP", "setting": "[2]; 90 min", "value": "69.96 nmol and 69.87 nmol and 69.99 nmol"}, {"measurement": "transhipment of ART, Transepithelial transport in BL-to-AP", "setting": "[2]; 120 min", "value": "90.64 nmol and 90.48 nmol and 90.67 nmol"}, {"measurement": "transhipment of ART, Transepithelial transport in BL-to-AP", "setting": "[2]; 150 min", "value": "106.51 nmol and 106.61 nmol and 106.74 nmol"}, {"measurement": "transhipment of ART, Transepithelial transport in BL-to-AP", "setting": "[2]; 180 min", "value": "124.37 nmol and 124.58 nmol and 124.56 nmol"}, {"measurement": "ART original concentration, single replicate", "setting": "[2]; [5]", "value": "786.91 ng/mL and 1910.44 ng/mL and 2313.90 ng/mL"}, {"measurement": "ART original concentration, column mean", "setting": "[2]; [5]", "value": 2112.17, "unit": "ng/mL"}, {"measurement": "ART concentration per group, summary block", "setting": "[2]; [5]", "value": 2112.17, "unit": "ng/mL"}, {"measurement": "ART original concentration, single replicate", "setting": "[2]; [6]", "value": "2149.07 ng/mL and 2049.02 ng/mL and 3232.78 ng/mL"}, {"measurement": "ART original concentration, column mean", "setting": "[2]; [6]", "value": 2640.90, "unit": "ng/mL"}, {"measurement": "ART concentration per group, summary block", "setting": "[2]; [6]", "value": 2476.96, "unit": "ng/mL"}, {"measurement": "ART original concentration, single replicate", "setting": "[2]; [7]", "value": "2915.94 ng/mL and 2813.25 ng/mL and 3472.39 ng/mL"}, {"measurement": "ART original concentration, column mean", "setting": "[2]; [7]", "value": 3142.82, "unit": "ng/mL"}, {"measurement": "ART concentration per group, summary block", "setting": "[2]; [7]", "value": 3067.20, "unit": "ng/mL"}, {"measurement": "ART original concentration, single replicate", "setting": "[2]; [8]", "value": "3594.17 ng/mL and 3318.58 ng/mL and 3006.12 ng/mL"}, {"measurement": "ART original concentration, column mean", "setting": "[2]; [8]", "value": 3162.35, "unit": "ng/mL"}, {"measurement": "ART concentration per group, summary block", "setting": "[2]; [8]", "value": 3306.29, "unit": "ng/mL"}, {"measurement": "ART original concentration, single replicate", "setting": "[2]; [9]", "value": "3213.69 ng/mL and 2917.70 ng/mL and 3363.12 ng/mL"}, {"measurement": "ART original concentration, column mean", "setting": "[2]; [9]", "value": 3140.41, "unit": "ng/mL"}, {"measurement": "ART concentration per group, summary block", "setting": "[2]; [9]", "value": 3164.84, "unit": "ng/mL"}, {"measurement": "ART original concentration, single replicate", "setting": "[2]; [10]", "value": "2674.58 ng/mL and 2920.77 ng/mL and 2532.18 ng/mL"}, {"measurement": "ART original concentration, column mean", "setting": "[2]; [10]", "value": 2726.47, "unit": "ng/mL"}, {"measurement": "ART concentration per group, summary block", "setting": "[2]; [10]", "value": 2709.18, "unit": "ng/mL"}, {"measurement": "ART original concentration, single replicate", "setting": "[2]; [11]", "value": "5260.58 ng/mL and 5169.96 ng/mL and 5652.08 ng/mL"}, {"measurement": "ART concentration per group, summary block", "setting": "[2]; [11]", "value": 5360.87, "unit": "ng/mL"}, {"measurement": "ART original concentration, single replicate", "setting": "[2]; [12]", "value": "8719.34 ng/mL and 7267.89 ng/mL and 12129.77 ng/mL"}, {"measurement": "ART original concentration, column mean", "setting": "[2]; [12]", "value": 9698.83, "unit": "ng/mL"}, {"measurement": "ART concentration per group, summary block", "setting": "[2]; [12]", "value": 9372.33, "unit": "ng/mL"}, {"measurement": "ART original concentration, single replicate", "setting": "[2]; [13]", "value": "9503.98 ng/mL and 6910.68 ng/mL and 13549.62 ng/mL"}, {"measurement": "ART original concentration, column mean", "setting": "[2]; [13]", "value": 10230.15, "unit": "ng/mL"}, {"measurement": "ART concentration per group, summary block", "setting": "[2]; [13]", "value": 9988.09, "unit": "ng/mL"}, {"measurement": "ART original concentration, single replicate", "setting": "[2]; [14]", "value": "10562.24 ng/mL and 7482.04 ng/mL and 15676.89 ng/mL"}, {"measurement": "ART original concentration, column mean", "setting": "[2]; [14]", "value": 11579.46, "unit": "ng/mL"}, {"measurement": "ART concentration per group, summary block", "setting": "[2]; [14]", "value": 11240.39, "unit": "ng/mL"}, {"measurement": "ART original concentration, single replicate", "setting": "[2]; [15]", "value": "9970.47 ng/mL and 7130.75 ng/mL and 15441.45 ng/mL"}, {"measurement": "ART original concentration, column mean", "setting": "[2]; [15]", "value": 11286.10, "unit": "ng/mL"}, {"measurement": "ART concentration per group, summary block", "setting": "[2]; [15]", "value": 10847.56, "unit": "ng/mL"}, {"measurement": "ART original concentration, single replicate", "setting": "[2]; [16]", "value": "7047.15 ng/mL and 14960.70 ng/mL and 8594.06 ng/mL"}, {"measurement": "ART original concentration, column mean", "setting": "[2]; [16]", "value": 11777.38, "unit": "ng/mL"}, {"measurement": "ART concentration per group, summary block", "setting": "[2]; [16]", "value": 10200.64, "unit": "ng/mL"}]}
{"smiles": "C[C@@H]1CC[C@H]2[C@@H](C)C(=O)O[C@@H]3O[C@@]4(C)CC[C@@H]1[C@]32O4", "note": "[DEART, Deoxyartemisinin]", "values": [{"measurement": "reduction of R123 transport from the BL side to the AP side", "setting": "[3]", "value": 22.40, "unit": "%"}]}
